The test system of experiment [1] is mouse intestinal organoids. Description: Organoid permeability assay with 4 kDa FITC-dextran, LPS with or without metabolites. It counts as cell-based. To be noted: ex vivo organoids. The protocol: Intestinal organoids were isolated as previously described (Das et al., 2015; Pearce et al., 2018). Briefly, crypts were isolated from small intestine of conventional house C57BL/6 male mice (Taconic Laboratories, Hudson, NY) by shaking in isolation buffer (2 mM EDTA in PBS), then, crypts were harvested, processed, and suspended in crypt culture medium (CCM), which consisted of advanced DMEM/F12 (Life Technologies, Carlsbad, CA) supplemented with serum-free B27 (1:50; Life Technologies), N2 (1:100; Life Technologies), N-acetylcysteine (1 mM; Sigma-Aldrich, St. Louis, MO), recombinant murine epithelial growth factor (EGF, 50 ng/ml; Peprotech, Rocky Hill, NJ), Noggin (100 ng/ml; Peprotech), R-Spondin (500 ng/ml; Peprotech), Glutamax-I supplement (1:100; Life Technologies), penicillin/streptomycin (500 μg/ml; Life Technologies), and HEPES ([…]; Life Technologies). Crypts were resuspended in 70% Matrigel (density ˜450 crypts per dome, 2 domes per well in 24-well plate) and allowed to solidify at 37° C. for 20 min. CCM (1.5 mL) was then added to each well. Cultures were incubated in a humidified incubator at 37° C., and CCM was changed daily. Intestinal organoid treatment with LPS and metabolites
We had 2 series of metabolite-treated organoid experiments, i.e., 1) organoid from conventional C57BL6 mice and 2) Ocln KO and littermate WT control as a gift from Prof. Jerrold Turner (Harvard University). […] Seeding is designated as day 0. On day 3 of culture, the existing media in the wells were completely removed before adding treatments. LPS (1 μg/mL) with or without metabolites, i.e., IPA (0.1 mM) (Li et al., 2021), IAM (200 μM) (Vyhlidalova et al., 2020), MNA (12 ng/ml) (Liu et al., 2015), CARN (20 mM) (Boldyrev et al., 2013) or ASA (1 μM) (Erez et al., 2011) were each added in CCM at known physiological concentrations, incubated for 48 hours, thereafter, organoid was harvested for RNA extraction, and paraformaldehyde fixation for immunostaining.
Permeability assays followed earlier work (Pearce et al., 2018). Briefly, all media were removed and then organoid were incubated with CCM containing 4 kDa FITC-dextran (Sigma-Aldrich, St. Louis, MO, Cat. #46944) at a final concentration of 1.25 µM for 30 minutes at 37° C. and at 5% CO2. […] A fluorescent microscope (Nikon Eclipse TI, NY) at a 10× magnification was used to observe and capture the fluorescence within the lumen of the organoids. Using the same area as the lumen, three different background samples are measured randomly around the lumen. The three background samples measured are averaged and then subtracted from the measured fluorescence of the lumen. […] The quantification of the fluorescence was conducted using the ImageJ 1.53 (NIH, Bethesda, MD).

Experiment [2] relates to human-derived Caco-2 cells. Description: In vitro transwell screening in Caco-2 cells, barrier disrupted by Clostridium difficile toxin (TEER and FITC-dextran permeability). The experiment is classed as cell-based. An excerpt: FIG. 20A-20B. In vitro screening of metabolites effective against leaky gut. FIG. 20A, Diagram of the in vitro transwell method used to evaluate efficacy of metabolites in protecting the leaky gut in human-derived Caco-2 cells. The luminal compartment represents the food side, and the basolateral the blood side. FIG. 20B, Transepithelial electrical resistance (TEER) measurements, and FITC-dextran measurements, evaluate the leakiness of the tight junction that regulates the pore (top) and leak (bottom) pathways of the gut. Ions (red), small molecules (blue), FITC-dextran (orange).
FIG. 21A-21D. Efficacy of tryptophan and vitamin B3 metabolites in protecting the gut barrier in vitro. FIG. 21A, TEER measurements of metabolites placed on luminal side of transwells for 72 hours. After 48 hours, the barrier was disrupted by the toxin of clostrium difficile (Cdiff). FIG. 21B, Integrated results of area under the curve using data from FIG. 21A. FIG. 21C, FITC-dextran permeability analysis of metabolites applied luminally. FIG. 21D, FITC-dextran permeability analysis of metabolites applied basolaterally.
FIG. 22A-22B. Efficacy of microbiota-derived indole metabolites in protecting the gut barrier. FIG. 22A, Integrated results of TEER measurements of metabolites placed on luminal side of transwells for 72 hours. After 48 hours, the barrier was disrupted by the toxin of clostrium difficile (Cdiff) FIG. 22B, FITC-dextran permeability analysis of metabolites from FIG. 22A applied luminally.
To perform in vitro screening of the metabolites effective against leaky gut, an in vitro transwell method was used. (FIG. 20A) The efficacy of these metabolites in protecting the leaky gut was analyzed in human-derived Caco-2 cells. Transepithelial electrical resistance (TEER) measurements evaluates the leakiness of the tight junction that regulates the pore (FIG. 20B, top) and leak (FIG. 20B, bottom) pathways of the gut. The higher the TEER, the less permeable the junction is to the movement of ions and small molecules. FITC-dextran is a large polysaccharide with a fluorescent moiety, typically used as a probe to assess the leakiness of the tight junction to large molecules like dextran. The faster the movement of FITC-dextran from lumen to blood, the greater the permeability.
(FIG. 21A) There was no effect of these metabolites on TEER when applied by themselves. After 48 h, the barrier was disrupted by the toxin of a common “bad” bacteria Clostridium difficile (Cdiff). TEER plummeted with this toxin (TOX, red line) compared to control (Veh, blue line). […] (FIG. 21A)

Regarding `NC(=O)Cc1c[nH]c2ccccc12` [Indole-3-acetamide, indole-3-acetamide], in experiment [1], the “disruption of the gut barrier, fluorescence microscopy (FIG. 11M)” value was “prevented disruption of the gut barrier”. In experiment [2] (applied to the lumen, TOX), the “TEER, indole metabolites (FIG. 22A)” value was “clearly protective against TOX-induced decreases in TEER”.
With `C[n+]1cccc(C(N)=O)c1` [Methylnicotinamide, 1-methynicotinamide], in experiment [1], the “disruption of the gut barrier, fluorescence microscopy (FIG. 11M)” value was “prevented disruption of the gut barrier”. The “integrated TEER (area under the curve, FIG. 21B)” value in experiment [2] (luminal, C. difficile toxin) is recorded as “protected the cells from barrier disruption by TOX”. In addition, the “TEER after C. difficile toxin (FIG. 21A)” value in experiment [2] (metabolites on luminal side, toxin after 48 h) was “best at preventing the toxin-induced disruption of the barrier”.

(Values after patent US20240350456A1, “COMPOSITIONS AND METHODS FOR DIAGNOSING AND TREATING INFLAMMATORY CONDITIONS” (RUTGERS, THE STATE UNIVERSITY OF NEW JERSEY, priority 2023, published 2024).)
